Reference: US20230093975A1, “I[…] FOR TREATING CENTRAL NERVOUS SYSTEM DISORDERS” (priority 2021, published 2023)
Read-outs that look alike come from different tables or passages of the source.

Assays:
[1] = Oral rivastigmine pharmacokinetics and estimated CSF uptake (Exelon label); type: in vivo; conditions: plasma volume 2750 mL, CSF volume 150 mL
Procedure: Drug coating and formulation development. The absolute bioavailability of oral rivastigmine is approximately 40%, and the AUC1-12 h cerebral spinal fluid (CSF)/plasma ratio is about 40% (Novartis Exelon® Capsules and Oral Solution Prescribing Information). An estimated 0.87% of the rivastigmine oral dose is absorbed and distributed into the CSF. Thus, the daily CSF uptake of this drug is estimated to be between 26-105 μg. As a starting point for the formulation development, we will first target to formulate a matrix loaded with rivastigmine which will be released over 30 days in a near linear manner. Bilateral administration of the rivastigmine matrix would result in approximately 21-107 μg rivastigmine delivered to CSF/day, assuming a CSF bioavailability between 10-50%.
For oral administration, delivery, an absolute bioavailability of Rivastigmine is about 40% and a mean AUC (area under the curve) 1-12 hr CSF/Plasma is about 40% (Exelon Label). The daily doses delivered to CSF are 26 μg/day, 52 μg/day, 79 μg/day, and 105 μg/day for the oral doses, equating to 1.5 mg BID, 3 mg BID, 4.5 mg BID, and 6 mg BID, respectively. For this estimation, a plasma volume of 2750 mL and a CSF volume of 150 mL are used.

[2] = oral rivastigmine, cited from earlier work

CCN(C)C(=O)Oc1cccc([C@H](C)N(C)C)c1 [Rivastigmine]
share of oral dose absorbed and distributed into the CSF [1]: 0.87%
AUC1-12 h CSF/plasma ratio [2]: about 40%
AUC1-12 h CSF/plasma ratio ([2]; listed as rivastigmine): approximately 40%
